Here are results for eight compounds from paper PMC8717711, “Metabolites From the Mangrove-Derived Fungus Cladosporium sp. HNWSW-1” (Frontiers in Chemistry, 2021).

Where only a bound is given, the exact number is not on record here.

Data set [1] deals with α-glucosidase (from baker's yeast). As to the kind of experiment: α-Glycosidase inhibitory activity (p-nitrophenyl α-D-glucopyranoside substrate). The note with it: α-glucosidase 0.2 U/ml, phosphate buffer pH 6.8, pNPG substrate, 37°C 15 min, absorbance 405 nm. In kind it is biochemical. The procedure:
A mixture including 25 μl of different compounds (final concentrations of 0.0625, 0.125, 0.25, 0.5, and 1.0 mM), 25 μl of α-glucosidase (0.2 U/ml, from baker’s yeast, Sigma), and 175 μl phosphate buffer (pH 6.8) was left to stand for 10 min at room temperature in a 96-well plate, and then 25 μl of 23.2 mM p-nitrophenyl α-D-glucopyranoside (Sigma-Aldrich) was added and further incubated at 37°C for 15 min. Finally, the absorbance was measured at 405 nm to determine the amount of p-nitrophenol cleaved by the enzyme using a Synergy H1 Hybrid Multi-Mode Microplate Reader (BioTek Instruments, Inc.). The control was prepared by adding phosphate buffer instead of the sample in the same way as the test. The blank was prepared by adding phosphate buffer instead of α-glucosidase using the same method.

Data set [2] in a line: Cytotoxicity by the MTT method, BEL-7402. In kind it is cell-based. Conditions: human, BEL-7042 (printed in table; BEL-7402 in text) cells, 36 h incubation with compound. How it is done: (§1) The cytotoxic activity of compounds 1–3 and 5–8 against human cervical cancer cell lines (Hela), human hepatic carcinoma cell lines (BEL-7402), leukemia cell lines (K562), and human gastric cell lines (SGC-7901) was assayed by the MTT method ([Mosmann, 1983]; [Wang et al., 2013]). These cell lines were purchased from Shang Hai Cell Bank of Chinese Academy of Sciences. Hela, BEL-7402, K562, and SGC-7901 cell lines were cultured in RPMI-1640 with 10% FBS under a humidified atmosphere of 5% CO2 and 95% air at 37°C, and 198 μl of the cell suspension was plated in 96-well microtiter plates. After being incubated for 24 h, 2 μl of the test solutions in DMSO was added to each well and further incubated for 36 h. The MTT solution (20 μl, 5 mg/ml in IPMI-1640 medium) was then added to each well and further incubated for 4 h. Finally, the medium containing MTT (150 μl) was gently replaced by DMSO and pipetted to dissolve any formazan crystals formed. Absorbance was then determined on a Multiskan FC photometric microplate reader (Thermo Fisher Scientific) at 570 nm. Adriamycin was used as the positive control drug.

Data set [3] in a line: Cytotoxicity by the MTT method, SGC-7901. In kind it is cell-based. The note with it: human, SGC-7901 cells (human gastric cell line), 36 h incubation with compound. The procedure: as §1
Data set [4] can be described thus: Cytotoxicity by the MTT method, K562. In kind it is cell-based. Conditions: human, K562 cells (leukemia cell line), 36 h incubation with compound. The procedure:
as §1

A short description of data set [5]: Cytotoxicity by the MTT method, Hela. The format is cell-based. The note with it: human, HeLa cells (human cervical cancer cell line), 36 h incubation with compound. The procedure:
as §1

For the compound `CC(C)C[C@H](NC(=O)c1nc(C(=O)O)cc2c1[nH]c1ccccc12)C(=O)O` [Compound 3, cladospomine], the IC50 in data set [1] is > 1000 µM. For the same compound, the half-inhibitory concentration (IC50) at 36 h in data set [2], in data set [3], in data set [4] and in data set [5] was > 100 µM each time.
With `COc1cccc2c1C(=O)c1c(O)c3c(c(O)c1C2=O)C[C@@](O)(C(=O)CO)C[C@@H]3O[C@H]1C[C@H](N)[C@H](O)[C@H](C)O1` [Adriamycin, reference compound], the IC50 at 36 h in data set [2] came out at 0.47 ± 0.01 µM; in data set [3], 0.22 ± 0.01 µM; in data set [4] it was 0.1 ± 0.01 µM; in data set [5] it was 0.28 ± 0.01 µM.
With `COC(=O)CCC(C)(O)CCc1cc(C(=O)O)ccc1O` (stereo not drawn) [Compound 2, cladoslide B], the half-inhibitory concentration (IC50) in data set [1] is > 1000 µM. For the same compound, the IC50 at 36 h in data set [2], in data set [3], in data set [4] and in data set [5] was > 100 µM each time.
For `C[C@@H](O)CCCCC[C@H](O)[C@H]1C=CC(=O)O1` [Compound 8, (4R,5S,11R)-iso-cladospolide B], the half-inhibitory concentration (IC50) in data set [1] is > 1000 µM. Further, the IC50 at 36 h in data set [2], in data set [3], in data set [4] and in data set [5] was > 100 µM in each case.
On to `C[C@@H](O)CCCCC[C@H](O)[C@@H]1C=CC(=O)O1` [Compound 6, (4S,5S,11R)-iso-cladospolide B], for which, in data set [1], the half-maximal inhibitory concentration (IC50) was > 1000 µM. Moreover, the 50% inhibitory concentration (IC50) at 36 h in data set [2], in data set [3], in data set [4] and in data set [5] was > 100 µM each time.
Regarding `CC(=O)NCC(=O)c1c[nH]c2ccccc12` [Compound 5, N-acetyl-β-oxotryptamine], in data set [1], the 50% inhibitory concentration (IC50) was found to be 170 ± 10 µM. Further, the IC50 at 36 h in data set [2], in data set [3], in data set [4] and in data set [5] was > 100 µM in each case.
Regarding `C[C@H](O)CCCCC[C@H](O)[C@@H]1C=CC(=O)O1` [Compound 7, (4S,5S,11S)-iso-cladospolide B], the concentration for half-maximal inhibition (IC50) in data set [1] was > 1000 µM. Besides, the IC50 at 36 h in data set [2], in data set [3], in data set [4] and in data set [5] was > 100 µM throughout.
Take `CC(O)(CCC(=O)O)CCc1cc(C(=O)O)ccc1O` (stereo not drawn) [Compound 1, cladoslide A]: in data set [1], the IC50 was 320 ± 10 µM. Further, the IC50 at 36 h was > 100 µM in data set [2], > 100 µM in data set [3], 13.1 ± 0.08 µM in data set [4] and > 100 µM in data set [5].
